Data taken from US20260000763A1, “Methods of Manufacturing Therapeutic Cells” (The Board of Trustees of the Leland Stanford Junior …, priority 2022, published 2026).

Columns and labels:
CAR T cells = assay: Seahorse analysis, ATP5 expression and ATP levels of CAR T cells manufactured in inosine; assay type: cell-based
Protocol: A and B: Seahorse analysis of CAR T cells at day 11 post-activation. Representative graphs of n=1-2 donors are shown. P values were determined by unpaired two-tailed t-tests. C: Flow analysis of ATP5 expression by CD8+ CAR T cells at day 17 post-activation. Representative histograms of two donors are shown. D: ATP levels in CAR T cells at day 14 post activation. Results from two independent experiments are shown (n=2).
Studied next was the effect of inosine on CAR T cell metabolism. […] Furthermore, the total amount of ATP generated by CAR T cells grown in the presence of inosine was increased (FIG. 4D).

CD19.28 CAR T cells = CD19.28 CAR T cells expanded in inosine vs glucose media: Annexin V, CAR expression, CD4/CD8, memory phenotype (flow cytometry); assay type: cell-based
Protocol: In this example, CD19.28 CAR T cells were cultured in regular complete RPMI media until day 4, and then the cells were split between 11 mM glucose-(CTR) or 11 mM inosine-(INO) containing media (unless stated otherwise). A: Annexin 5 staining was performed at day 17 post-activation. Representative histograms of n=3 donors are shown. B: Surface CD19.28 CAR expression at day 14 post-activation. C: MFI of CAR molecules on CD19.28z CAR T cell surface at day 14 post activation. D: Ratio of CD4+vs CD8+CD19.28 CAR T cells at day 14 post-activation. E: CD19.28z CAR T cells were co-cultured with cells of the Nalm6 tumor line (1:8 E: T) for 75 hrs in an IncuCyte assay. […] Representative donor of n=3 is shown. F: Control media was replaced by INO+ media at the indicated day post activation. At day 14, cells were stimulated with Nalm6 tumor line, and IL-2 and IFNγ secretion was assessed by ELISA. […] For A and B, P values were determined by paired two-tailed t-tests. […] For F and G, P values were determined by unpaired two-tailed t-tests.
In this example, CAR T cells were cultured in control media until day 4 post activation, followed by continued expansion in regular or inosine-containing media. Phenotype of the cells was assessed by flow cytometry at day 21 post activation. A: Frequency of CD62L+ and CCR7+HA CAR+ T cells in 8 different donors. Representative histograms are shown. B: Relative frequency of central memory (CM), naïve, terminally differentiated (TEMRA) and effector memory (EM) HA CAR T cells. N=8 donors. C: Frequency of CD62L+ and CCR7+CD19.28 CAR+ T cells in 8 different donors. Representative histograms are shown. D: Relative frequency of central memory (CM), naïve, terminally differentiated (TEMRA) and effector memory (EM) CD19.28 CAR T cells. N=8 donors.
In this example, CD19.28 CAR T cells were generated using a retroviral vector and at day 4 post-activation, the cells were split between 11 mM glucose-(CTR) or 11 mM inosine-(INO) containing media (unless stated otherwise). Tested first was whether the absence of glucose in the culture media has a negative effect on the viability of CAR T cells.

[1] = system: Nalm6-GD2, 143b and CHL255 tumor cell lines; assay: Co-culture of HA CAR T cells with GD2-expressing tumor lines: IncuCyte killing, IL-2 and IFNγ secretion; assay type: cell-based, human; details: for antigen induced IFNγ secretion: Nalm6-GD2 24 hrs, D14 cells, INO in presence or absence of glucose
[2] = day 14, 11 mM inosine vs glucose

`O=c1[nH]cnc2c1ncn2[C@@H]1O[C@H](CO)[C@@H](O)[C@H]1O` [inosine, Inosine] was tested, and the “ATP5 (Complex V) protein expression” value (CAR T cells; CD8+ CAR T cells, day 17, flow) was “increased level”, the bioenergetic profile (CAR T cells; Seahorse, day 11) was “shifting it towards oxidative phosphorylation” and the “extracellular acidification rate (ECAR)” value (CAR T cells; Seahorse, day 11 post-activation) was “significantly decreased”. The “total amount of ATP generated” value (CAR T cells; day 14) was “increased”, the “percentage of live cells” value (CD19.28 CAR T cells; CD19.28 CAR T cells, 11 mM inosine vs 11 mM glucose, day 17) was “increase” and the “frequency of Annexin V+ apoptotic cells” value (CD19.28 CAR T cells; CD19.28 CAR T cells, 11 mM inosine without glucose from day 4, vs 11 mM glucose, day 17 post-activation) was “significantly lower frequency”. The “CAR MFI” value (CD19.28 CAR T cells; CD19.28z CAR T cell surface, day 14, 11 mM inosine vs glucose) was “increased”, the CD4/CD8 ratio (CD19.28 CAR T cells; [2]) was “neither percentage of CAR+ T cells nor CD4/CD8 ratio was affected” and the “percentage of CAR+ T cells” value (CD19.28 CAR T cells; [2]) was “neither percentage of CAR+ T cells nor CD4/CD8 ratio was affected”. The cytotoxic function ([1]; INO added on day 4, 7, 10 or 14, 143b 1:1 E:T from day 15) was “increased cytotoxic function”, the “antigen induced IFNγ secretion” value [1] was “significantly enhanced antigen induced IFNγ secretion” and the “antigen induced IFNγ secretion” value ([1]; listed as INO) was “enhanced antigen induced IFNγ secretion”. For the same compound, the “tumor killing and cytokine secretion after multiple stimulations” value ([1]; serial challenge with Nalm6-GD2 1:1, glucose present or absent during manufacturing) was “enhanced tumor killing and cytokine secretion”.
